Here are results for three substances from paper PMC5711939, “The rumen microbiome: an underexplored resource for novel antimicrobial discovery” (NPJ Biofilms and Microbiomes, 2017).

Assay [1] has as its system MRSA strains. Briefly: Time kill kinetics. Type of assay: cell-based, Staphylococcus aureus. The note with it: 3× MIC, MHB. Here is the method:
Assessment of the bactericidal activity of peptides and comparator antibiotics was performed as previously described[39] using exponential-phase cultures of pathogens grown in MHB ([…]). Peptides were added at concentrations 3 times their MIC values. Experiments were performed in quadruplicates, and CFU/ml was calculated at different time points after over overnight incubation.

The test system of assay [2] is Sal. typhimurium. As to the kind of experiment: SPOT peptide library screen (resazurin fluorescence). Conditions: 75% reduction of fluorescence vs untreated controls; active IC75≤0.25, semi-active 0.25<IC75≤0.50, inactive IC75>0.5. Details: unit not given here. Type of assay: cell-based, Salmonella enterica serovar Typhimurium. The source says:
(§1) The peptides in the created peptide library were synthesized based on the SPOT technique and pure peptides (≥95% purity) were synthesized on resin using solid phase Fmoc peptide chemistry.[16] The 135 peptides in the peptide library were screened for antimicrobial activity using both luminescent (Pseudomonas aeruginosa strain H1001)[34] and non-luminescent (epidemic methicillin resistant S. aureus EMRSA-15, Sal. typhimurium and E. coli K12) bacterial strains. Activity against non-luminescent bacteria strains was assessed by fluorescence readings (excitation/emission spectra of 560/590 nm) after the addition of resazurin dye (100 µm final concentration). The results from the screen were analysed using the MATLAB extension Gait-CAD as previously described.[35] Concentration values with a 75% reduction of luminescence or fluorescence (IC75) in relation to untreated controls were computed.

Assay [3] concerns E. coli K12. Briefly: MIC, broth microdilution. Type of assay: cell-based, Escherichia coli. The note with it: strain K12; cation adjusted MHB, 18–24 h. How it is done: (§2) Peptides dissolved in sterile distilled water and comparator antibiotics dissolved in the appropriate solvents[38] were added to sterile U-bottom polypropylene 96-well microplates at desired concentrations.
Background: Broth dilution looks for growth in wells or tubes with falling amounts of substance.

For assay [4], the system named is E. coli K12. Briefly: SPOT peptide library screen (resazurin fluorescence). The note with it: 75% reduction of fluorescence vs untreated controls; active IC75≤0.25, semi-active 0.25<IC75≤0.50, inactive IC75>0.5. Also noted: unit not given here. It is filed as cell-based, Escherichia coli.
Description: as §1

Assay [5] can be described thus: Peptide-lipid interaction, lipid monolayer (Langmuir balance). Type of assay: binding, Staphylococcus aureus. Conditions: initial surface pressure 30 ± 0.5 mN/m; compared to Lynronne-2. How it is done:
Membrane permeabilsation was evaluated using propidium iodide assay as previously explained,[43] with CTAB as positive control. Peptide–lipid interaction was measured using reconstituted lipid monolayer.[44] Total lipid extract from overnight liquid cultures of MRSA USA300 was obtained by Folch extraction, resuspended in chloroform and stored at −20 °C under nitrogen conditions. Pure bacterial and eukaryotic lipids, POPG, cardiolipin, LTA, POPE and POPC (Avanti Polar Lipid USA) were reconstituted in chloroform at 1 mg/ml and stored at −20 °C under nitrogen. […] The variation of the surface pressure caused by peptide injection was then continuously monitored using a fully automated microtensiometer (µTROUGH SX, Kibron Inc., Helsinki, Finland) until reaching equilibrium (maximal surface pressure increase usually obtained after 15–25 min). Critical pressure of insertion of each peptide in the different lipids was also determined by changing the initial pressure of lipid monolayer (from 10 and 30 mN/m) and measuring the variation of pressure caused by the injection of peptide (at 1 µg/ml final concentration). All experiments were carried out in a controlled atmosphere at 20 °C ± 1 °C and data were analyzed using the Filmware 2.5 program (Kibron Inc., Helsinki, Finland). […]

Assay [6] concerns EMRSA-15. As to the kind of experiment: SPOT peptide library screen (resazurin fluorescence). Conditions: 75% reduction of fluorescence vs untreated controls; active IC75≤0.25, semi-active 0.25<IC75≤0.50, inactive IC75>0.5. Details: unit not given here. It is filed as cell-based, Staphylococcus aureus.
Description: as §1

For assay [7], the system named is K. pneumoniae. As to the kind of experiment: microbe, parasite or virus in culture. The note with it: cation adjusted MHB, 18–24 h. Here is the method: as §2
In assay [8] the test system is List. monocytogenes NCTC 11994. Briefly: microbe, parasite or virus in culture. Conditions: NCTC 11994. Here is the method: as §2
Assay [9] relates to Sal. typhimurium SL1344. Briefly: microbe, parasite or virus in culture. How it is done: as §2
For assay [10], the system named is S. aureus. Briefly: microbe, parasite or virus in culture. The note with it: for MIC: strain RN4220, Sensitive, cation adjusted MHB, 18–24 h. Here is the method: as §2
Assay [11] concerns Ent. faecalis JH2-2. As to the kind of experiment: microbe, parasite or virus in culture. How it is done:
as §2

Assay [12] relates to A. baumanii. Briefly: microbe, parasite or virus in culture. Here is the method:
as §2

Assay [13] has as its system USA300 MRSA (BAA-1717). Briefly: Murine model of MRSA wound infection. Type of assay: in vivo, Staphylococcus aureus. Conditions: ICR mice, topical 2% once daily for 3 days, five mice/group. How it is done:
The efficacy of Lynronne-1, Lynronne-2 and Lynronne-3 for treating a wound infection caused by USA300 community-associated methicillin resistant S. aureus (MRSA, strain BAA-1717) was evaluated using a murine wound model with ICR mice.[24] A sharp punch (ID 12 mm) was used to create excisional skin wounds in groups of five female ICR mice (5–6 weeks old). The mice were inoculated topically on the wound area (5 µl per wound) with 1.05 × 10^5 CFU/mouse of strain BAA-1717 suspended in 5 µl PBS. Peptides (2 or 10% w/v) in PBS (pH 7.4), control (PBS), and mupirocin 2% (Dermasafe® ointment) were topically applied (20 µl/mouse) directly to wounds 2 h post infection and once daily thereafter for three consecutive days. Test animals were sacrificed and the wound tissue was excised for enumeration of bacteria cells (CFU/wound). A two-log reduction in the bacterial count (≥99% reduction) relative to the control group indicates significant activity. Statistical significance (P < 0.05) was performed with one-way analysis of variance (ANOVA) followed by use of the Dunnett’s method.

Assay [14] deals with MRSA ATCC 33591. As to the kind of experiment: Anti-biofilm activity, 96-well crystal violet model. Type of assay: cell-based, Staphylococcus aureus. Conditions: 0.25× MIC (data not shown). Here is the method:
The effectiveness of Lynronne-1, Lynronne-2, and Lynronne-3 to prevent (a) biofilm attachment and (b) disrupt established biofilms was measured using a 96-well biofilm model.[50] […] The biofilms were washed in PBS to remove planktonic cells, fixed with methanol, stained with 0.5% (w/v) crystal violet and re-solubilized with 33% (v/v) acetic acid. The optical density of biofilms was measured at 570 nm.

Read-outs that look alike come from different tables or passages of the source. Ends that are not written are not given here. Bounds are passed on as bounds.

In the case of NRFTARFRRTPWRLCLQFRQ-NH2 [Lynronne-3], the “Reduction in viable count” value in [1] (within the first 10 min) is reported as over 8 log10 CFU/ml. In assay [2], the “IC75 values indicating activity classes, Sal. typhimurium” value amounted to 0.41. Further, the MIC amounted to 64 µg/mL in assay [3]; 32 µg/mL in [7] (strain ATCC 700603, SHV-18); 32 µg/mL in assay [7] (strain NCTC 13442, OXA-48); 32 µg/mL in assay [7] (strain Q14-0095, KPC); 32 µg/mL in assay [8]; 64 µg/mL in assay [9]. Besides, the MIC in assay [10] was found to be 32 µg/mL; in [11] it was 64 µg/mL; in assay [12] (strain 1560739339, OXA-23, cation adjusted MHB, 18–24 h), 32 µg/mL. Besides, in [4], the “IC75 values indicating activity classes, E. coli” value is listed as 0.16. For the same substance, in assay [5], the “Insertion ability into MRSA lipid extract monolayer” value was “higher insertion ability”. Also, the “IC75 values indicating activity classes, EMRSA-15” value in assay [6] was determined as 0.65. For the same substance, the “MIC range for methicillin-resistant S. aureus (MRSA) strains” value in assay [10] was in the range of 32 to 128 µg/mL. Moreover, the “Colony count relative to the control group treated with PBS” value in [13] is on record as “No significant decreases”.
On to LPRRNRWSKIWKKVVTVFS-NH2 [Lynronne-1], for which the “Reduction in viable count” value in assay [1] (within the first 10 min) was over 8 log10 CFU/ml. Further, in assay [2], the “IC75 values indicating activity classes, Sal. typhimurium” value came out at 0.24. Also, the MIC was 32 µg/mL in [3]; 16 µg/mL in [7] (strain ATCC 700603, SHV-18); 16 µg/mL in assay [7] (strain NCTC 13442, OXA-48); 32 µg/mL in assay [8]; 32 µg/mL in [9]; 32 µg/mL in [10]. Further, the MIC in [11] is 32 µg/mL; in assay [12], 4 µg/mL. For the same substance, the “IC75 values indicating activity classes, E. coli” value in assay [4] came to 0.06. In assay [5], the “Insertion ability into MRSA lipid extract monolayer” value is given as “higher insertion ability”. In assay [6], the “IC75 values indicating activity classes, EMRSA-15” value is 0.38. Besides, the “MIC range for methicillin-resistant S. aureus (MRSA) strains” value in assay [10] fell in the range of 8 to 32 µg/mL. In addition, the “Colony count relative to the control group treated with PBS” value in [13] is “significant decrease”.
As for HLRRINKLLTRIGLYRHAFG-NH2 [Lynronne-2], in [1] (in 30 min), the “Reduction in viable count” value was over 3 log10 CFU/ml. In assay [2], the “IC75 values indicating activity classes, Sal. typhimurium” value stood at 0.09. The MIC in [3] worked out at 64 µg/mL; in [8], 32 µg/mL; in assay [9], 32 µg/mL; in [10], 32 µg/mL; in assay [11] it was 32 µg/mL. The “IC75 values indicating activity classes, E. coli” value in assay [4] was found to be 0.09. Moreover, in assay [14], the Biofilm attachment result is listed as “effective”. Also, the “IC75 values indicating activity classes, EMRSA-15” value in assay [6] came to 0.29. The “Colony count relative to the control group treated with PBS” value in [13] was “No significant decreases”.
